Data from US12070445B2, “System and assay for monitoring production/release of membrane-lytic toxins in bacteria and compounds for modulating same” (priority 2021, dated 2024).

System: agr
Test: agr YFP transcriptional reporter assay (S. aureus AH1677 with pDB59)
Assay type: cell-based
Conditions: Staphylococcus aureus, 24 h, read-out: IC50 in the agr reporter assay
Description: Bacterial strains and culture. All bacteria were grown at 37° C. with 200 rpm shaking unless otherwise specified. S. aureus and P. aeruginosa were grown in BHI medium and LB medium, respectively. S. aureus AH1677 (with an agr-YFP reporter plasmid) and P. aeruginosa PAO1-PGSC (with a plasI-LVAgfp reporter plasmid) were used as QS transcriptional reporters and grown with 10 μg/mL chloramphenicol and 300 μg/mL carbenicillin, respectively. All other strains were grown without supplemental antibiotic. S. aureus RN6390b and P. aeruginosa PAO1-PGSC were used as WT strains in vesicle lysis experiments, while S. aureus RN9222 and P. aeruginosa PAO-JG35 were used as QS mutants. RN9222 was grown without antibiotic as it was not used as a reporter strain (i.e., it served only as QS mutant).
High-throughput screening and follow-up analysis protocols. Test compounds and positive control 1 were delivered in 2.5 nL aliquots of DMSO with an Echo 550 liquid handler (LabCyte Inc.) into black 384-well microtiter plates (Corning). All test compounds were tested at 10 μM; positive control 1 was tested at 250 nM. DMSO was used as a negative control. Overnight cultures (2 mL) of WT S. aureus (RN6390b) were grown at 37° C. with shaking at 200 rpm. These cultures were diluted 1:500 (v/v) in fresh BHI medium, at which point vesicle solutions were added to a final concentration of 1 mM phospholipid (as determined by ^31P NMR analyses). This vesicle-cell mixture was then added to the 384-well microtiter plates with a Multidrop 384 liquid-dispensing robot (Thermo Scientific) for a total volume of 50 μL per well. Plates were incubated statically for ˜24 hr at 37° C., at which point fluorescence (excitation 483, emission 530) and OD600 (absorbance at 600 nm) measurements were made using a CLARIOstarR Plus microtiter plate reader (BMG Labtech) running MARS data analysis software. Scatter plots were generated using the Collaborative Drug Discovery Vault informatics platform. The dose-response experiment using the vesicle lysis assay was performed in a 384-well plate in technical duplicate with compound concentrations of 0.1, 0.25, 0.5, 1, 2.5, 5, 10, and 20 μM. Dose-response curves were generated using variable slope (4 parameter) non-linear regression analysis for compound inhibition using GraphPad Prism software (v. 9). Analysis of the QS modulatory activity of the HTS hits and 6 (savirin) was performed using the S. aureus YFP transcriptional reporter strain. HTS hits were purchased directly from Life Chemicals, Inc. DMSO stock solutions (10 mM) of each compound were prepared and stored at −20° C. Serial dilutions (1:3) were prepared from the stock solutions in DMSO, and 2 μL aliquots of the resulting dilutions were added to the wells of black 96-well microtiter plates (Corning). Overnight cultures of the S. aureus reporter strain (2 mL) were grown at 37° C. with shaking at 200 rpm. Cultures were diluted 1:50 (v/v) into fresh BHI medium, and 198 μL of this diluted culture were added to each well containing compound, for a total volume of 200 μL per well. All plates contained a vehicle control consisting of 2 μL of DMSO and 198 μL of culture and a media control consisting of 200 μL BHI. Plates were incubated for ˜24 hours at 37° C. with shaking at 200 rpm. Fluorescence (excitation 510, emission 544) and OD600 measurements were acquired with a PerkinElmer EnVision microtiter plate reader running Envision Manager software. Background fluorescence from BHI control was subtracted from raw fluorescence reads, OD600 corrected, and finally normalized to vehicle control. Dose-response curves and IC50 values were generated using 3-parameter non-linear regression analysis for compound inhibition using GraphPad Prism software (v. 9). All compounds were tested in technical triplicate with at least 3 biological replicates.

Question: How did the IC50 turn out when `CC(C)c1ccc(S(=O)(=O)c2nnn3c2nc(O)c2ccccc23)cc1` [Compound 6, savirin] was run?
Answer: The IC50 was 5.5 µM.
